In US20090264528A1, “SERINE PALMITOYLCOA TRANSFERASE (SPT) INHIBITION BY MYRIOCIN OR GENETIC DEFICIENCY DECREASES CHOLESTEROL ABSORPTION” (The Research Foundation of State University of New York, priority 2008, published 2009):

Tests used:
cholesterol absorption [1] = test: Cholesterol absorption, fecal dual-isotope ratio method; type: in vivo, mouse; settings: single gavage, feces 24 hours
Description: FIGS. 5A-I depict several graphs that illustrate that SPT deficient mice absorbed less cholesterol. Mice (n=6, 10-12 weeks old) were fasted for 5 hours and gavaged with 0.1 microCi [^14C]cholesterol and 0.2 microCi [^3H]sitostanol with 0.5 mg unlabeled cholesterol dissolved in 15 microl of olive oil. Feces were collected after 24 hours and lipids were extracted for counting (FIGS. 5A, 5D, and 5G, cholesterol absorption, WT vs WT/myriocin; apoE KO vs apoE KO/myriocin; WT vs Sptlc1^+/−, respectively). Blood was collected during the 24 hour period (Panels B, E, and H, [^14C]cholesterol in blood, WT vs WT/myriocin; apoE KO vs apoE KO/myriocin; WT vs Sptlc1^+/−, respectively). To test specificity, the mice were gavaged with 0.2 microCi [^3H]triolein together with 0.5 mg/ml cold cholesterol. Blood was collected during the 24 hour period (FIGS. 5C, 5F, and 5I, [^3H] glycerolipids in blood, WT versus WT/myriocin; apoE KO versus apoE KO/myriocin; WT versus Sptlc1^+/−, respectively). […]
Cholesterol absorption studies: A classical fecal dual-isotope ratio method was used for the cholesterol absorption study. […] The cholesterol absorption ratio was calculated as: % absorption={1−[fecal(^14C/^3H)]/administered(^14C/^3H)}×100. In some cases, mice were sacrificed, plasma collected, and radioactivity counted. […] Each of these, as well as a part of the liver, were digested and radioactivity counted individually. […]

[2] = biological target: T1, Serine palmitoylCoA transferase (SPT) (Mus musculus, UniProt O35704+P97363); test: Tissue SPT activity assay, small intestine homogenate of treated mice; type: in vivo; settings: chow diet plus myriocin for 3 weeks, vs chow controls
T1 construct: from tissue; host or cells: small intestine homogenate of C57BL/6J WT and apoE KO mice fed chow with or without myriocin
T1 sequence (O35704 1-473): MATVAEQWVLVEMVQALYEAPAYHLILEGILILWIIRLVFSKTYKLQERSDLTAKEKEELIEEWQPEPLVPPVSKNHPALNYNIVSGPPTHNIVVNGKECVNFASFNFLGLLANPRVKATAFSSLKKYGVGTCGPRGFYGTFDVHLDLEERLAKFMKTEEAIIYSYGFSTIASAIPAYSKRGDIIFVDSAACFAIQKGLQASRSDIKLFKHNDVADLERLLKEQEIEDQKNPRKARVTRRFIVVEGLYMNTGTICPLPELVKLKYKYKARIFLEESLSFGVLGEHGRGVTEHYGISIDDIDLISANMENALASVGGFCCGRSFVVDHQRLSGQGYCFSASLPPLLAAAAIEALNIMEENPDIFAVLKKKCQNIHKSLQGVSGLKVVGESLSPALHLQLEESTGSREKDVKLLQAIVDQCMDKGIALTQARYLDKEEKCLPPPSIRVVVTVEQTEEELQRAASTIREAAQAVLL
T1 sequence (P97363 1-560): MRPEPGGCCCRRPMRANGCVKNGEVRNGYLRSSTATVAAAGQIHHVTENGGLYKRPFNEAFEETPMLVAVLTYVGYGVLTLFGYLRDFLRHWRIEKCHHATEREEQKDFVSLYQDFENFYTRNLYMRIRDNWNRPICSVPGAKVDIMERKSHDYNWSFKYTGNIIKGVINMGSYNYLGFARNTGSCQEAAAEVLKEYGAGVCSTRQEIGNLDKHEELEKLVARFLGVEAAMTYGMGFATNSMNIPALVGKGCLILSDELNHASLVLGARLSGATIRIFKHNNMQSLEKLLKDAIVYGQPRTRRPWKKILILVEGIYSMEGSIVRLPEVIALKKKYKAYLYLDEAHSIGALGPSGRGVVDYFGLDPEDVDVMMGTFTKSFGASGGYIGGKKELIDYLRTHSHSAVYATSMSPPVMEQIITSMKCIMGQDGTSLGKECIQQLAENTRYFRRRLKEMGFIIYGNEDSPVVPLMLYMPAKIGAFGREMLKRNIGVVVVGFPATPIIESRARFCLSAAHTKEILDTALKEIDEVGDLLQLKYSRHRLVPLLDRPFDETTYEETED
T1 sequence (Q8R207 1-71 partner): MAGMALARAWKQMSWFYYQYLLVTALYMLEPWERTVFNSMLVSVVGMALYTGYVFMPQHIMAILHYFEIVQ
Description: FIGS. 1A-1C depict three graphical representations of SPT deficiency decreased SPT activity in mouse small intestine. SPT activity of small intestine homogenate was measured with […] and palmitoyl-coenzyme A as substrates. TLC was performed to separate the product, 3-keto-dihydrosphingosine (KDS, Inset). KDS band was scanned. In FIG. 1A, wildtype (WT) mice fed chow diet or chow diet plus myriocin. In FIG. 1B, apoE KO (knockout)
Mice and diet: Male C57BL/6J and apoE KO (Apolipoprotien E knockout) mice with a C57BL/6J background were obtained from the Jackson Laboratory (Bar Harbor, Me.). Sptlc1 heterozygous KO mice with a C57BL/6 background were created and bred in the inventors' laboratory. Myriocin was mixed with a chow diet. […] The myriocin dose was chosen from a previous dose-dependent experiment with apoE-KO mice. Controls consisted of WT or apoE KO mice fed a chow diet (n=6). Sptlc1 heterozygous KO (Sptlc1^+/−)(n=6) and WT mice were also fed a chow diet.
Tissue SPT activity assay: Mouse small intestine (0.2 g) was homogenized in 0.5 ml of 50 mM Tris-HCl, pH 7.4, 5 mM EDTA, and 250 mM sucrose. SPT activity in the homogenates was measured with [^14C]-serine and palmitoyl-coenzyme A for substrates, as previously described (22), which is incorporated herein by reference in its entirety. […]

cholesterol absorption [3] = test: Blood [14C]-cholesterol within 24 hours after a single gavage; type: in vivo, mouse
Description: FIGS. 5A-I depict several graphs that illustrate that SPT deficient mice absorbed less cholesterol. Mice (n=6, 10-12 weeks old) were fasted for 5 hours and gavaged with 0.1 microCi [^14C]cholesterol and 0.2 microCi [^3H]sitostanol with 0.5 mg unlabeled cholesterol dissolved in 15 microl of olive oil. Feces were collected after 24 hours and lipids were extracted for counting (FIGS. 5A, 5D, and 5G, cholesterol absorption, WT vs WT/myriocin; apoE KO vs apoE KO/myriocin; WT vs Sptlc1^+/−, respectively). Blood was collected during the 24 hour period (Panels B, E, and H, [^14C]cholesterol in blood, WT vs WT/myriocin; apoE KO vs apoE KO/myriocin; WT vs Sptlc1^+/−, respectively). To test specificity, the mice were gavaged with 0.2 microCi [^3H]triolein together with 0.5 mg/ml cold cholesterol. Blood was collected during the 24 hour period (FIGS. 5C, 5F, and 5I, [^3H] glycerolipids in blood, WT versus WT/myriocin; apoE KO versus apoE KO/myriocin; WT versus Sptlc1^+/−, respectively). Value is mean±SD. *P<0.01.
This confirmed that there was defective cholesterol absorption in these animals.

In the case of `CCCCCCC(=O)CCCCCC/C=C/C[C@@H](O)[C@H](O)[C@@](N)(CO)C(=O)O` [Myriocin, myriocin], the “reduction in cholesterol absorption compared with controls” value (cholesterol absorption [1]; myriocin-treated WT mice, P<0.01) is reported as 36%, the “reduction in cholesterol absorption compared with controls” value (cholesterol absorption [1]; myriocin-treated apoE KO mice, P<0.001) is reported as 50% and the “less SPT activity than controls in the small intestine” value ([2]; WT mice) is reported as 60%. For the same compound, the “less SPT activity than controls in the small intestine” value ([2]; apoE KO mice) was 65%, the “[14C]-cholesterol in the circulation vs controls” value (cholesterol absorption [3]; myriocin-treated WT mice) was “significantly less” and the “[14C]-cholesterol in the circulation vs controls” value (cholesterol absorption [3]; myriocin-treated apoE KO mice) was “significantly less”.
